pIC50: −log10 of the molar value.

Among the data in US12673946B2, “Pyrimidin-4(3H)-one derivatives as TRPV4 antagonists” (RaQualia Pharma Inc., priority 2020, dated 2026) are IC50 values, retold here.

The target of this experiment is T1, human TRPV4 (Homo sapiens, UniProt Q9HBA0).
T1 construct: host or cells: tetracycline-inducible Flp-In T-REx 293 cells
The experiment is described as follows: Hypotonicity-induced Ca2+ influx (Fluo-4, FDSS). The class given is cell-based. The essentials:
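Flp-In T-REx 293 cells with tetracycline-induced human TRPV4, loaded with Fluo-4 for 60 min at 25 °C. Compound added 5 min before hypotonic mannitol/CaCl2 solution. Ca2+ signal recorded for 4.5 min on FDSS.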

Setting [1] is: Flp-In T-REx 293 cells expressing human TRPV4, examples listed under heading 'Human IC50<50 nM'.
[2] abbreviates: Flp-In T-REx 293 cells stably expressing human TRPV4, compounds listed by potency bin (<10 nM Tables 96-1/96-2, <3 nM Table 97).

T1 sequence (Q9HBA0 whole entry): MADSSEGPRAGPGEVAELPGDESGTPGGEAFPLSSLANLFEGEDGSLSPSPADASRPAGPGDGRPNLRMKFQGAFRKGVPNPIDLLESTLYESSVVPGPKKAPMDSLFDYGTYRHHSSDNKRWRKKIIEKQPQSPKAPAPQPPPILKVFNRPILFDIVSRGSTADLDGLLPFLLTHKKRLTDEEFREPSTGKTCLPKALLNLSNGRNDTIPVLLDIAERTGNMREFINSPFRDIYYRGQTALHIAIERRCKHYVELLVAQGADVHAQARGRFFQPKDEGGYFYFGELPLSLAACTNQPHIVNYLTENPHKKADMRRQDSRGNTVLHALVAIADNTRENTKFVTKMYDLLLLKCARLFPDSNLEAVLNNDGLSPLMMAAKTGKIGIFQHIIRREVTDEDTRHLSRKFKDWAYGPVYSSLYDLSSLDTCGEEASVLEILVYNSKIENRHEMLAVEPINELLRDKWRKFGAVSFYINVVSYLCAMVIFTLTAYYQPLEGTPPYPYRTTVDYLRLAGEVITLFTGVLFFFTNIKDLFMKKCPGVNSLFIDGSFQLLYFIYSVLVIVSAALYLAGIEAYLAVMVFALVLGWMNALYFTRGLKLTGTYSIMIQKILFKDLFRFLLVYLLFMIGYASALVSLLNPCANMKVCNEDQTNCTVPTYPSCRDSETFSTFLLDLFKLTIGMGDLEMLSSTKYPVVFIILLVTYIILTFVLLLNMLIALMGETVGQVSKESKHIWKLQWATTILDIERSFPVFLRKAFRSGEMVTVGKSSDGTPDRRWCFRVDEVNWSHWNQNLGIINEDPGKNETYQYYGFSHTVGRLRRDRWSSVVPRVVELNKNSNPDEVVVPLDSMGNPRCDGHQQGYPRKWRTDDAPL

Turning to `O=C([C@H](O)c1cccc(-c2ccc(OCc3ccccc3)nc2)c1)N1CCCc2nc(C3(c4ccccc4)CC3)[nH]c(=O)c2C1` [49-38], the pIC50 reads like this: under setting [1], more than 7.30; under setting [2], more than 8.52.
In the same order, the values of `O=C([C@H](O)c1cccc(-c2ccc3c(c2)OC(F)(F)O3)c1)N1CCCc2nc(C3(c4ccccc4)CC3)[nH]c(=O)c2C1` [49-39] are more than 7.30 and more than 8.52.
Regarding `O=C([C@H](O)c1cccc(-c2ccc(Cl)c(Cl)c2)c1)N1CCCc2nc(C3(c4ccccc4)CC3)[nH]c(=O)c2C1` [49-40], the pIC50 by setting is: under setting [1], more than 7.30; under setting [2], more than 8.52.
Take `O=C([C@H](O)c1cccc(-c2ccc(Cl)c(OC(F)(F)F)c2)c1)N1CCCc2nc(C3(c4ccccc4)CC3)[nH]c(=O)c2C1` [49-41]: the pIC50 runs as follows: under setting [1], more than 7.30; under setting [2], more than 8.00.
In the same order, the values of `O=C([C@H](O)c1cccc(-c2cccc(Cl)c2Cl)c1)N1CCCc2nc(C3(c4ccccc4)CC3)[nH]c(=O)c2C1` [49-42] are more than 7.30 and more than 8.00.
For the compound `O=C([C@H](O)c1cccc(-c2cc(Cl)ccc2Cl)c1)N1CCCc2nc(C3(c4ccccc4)CC3)[nH]c(=O)c2C1` [49-43], the pIC50 was more than 7.30 under setting [1] and more than 8.00 under setting [2].
In the same order, the values of `N#Cc1cc(Cl)cc(-c2cccc([C@@H](O)C(=O)N3CCCc4nc(C5(c6ccccc6)CC5)[nH]c(=O)c4C3)c2)c1` [49-44] are more than 7.30 and more than 8.52.
In the same order, the values of `CC(C)Oc1cccc(-c2cccc([C@@H](O)C(=O)N3CCCc4nc(C5(c6ccccc6)CC5)[nH]c(=O)c4C3)c2)c1` [49-45] are more than 7.30 and more than 8.52.
Regarding `O=C([C@H](O)c1cccc(-c2coc3ccccc23)c1)N1CCCc2nc(C3(c4ccccc4)CC3)[nH]c(=O)c2C1` [49-46], the pIC50 reads like this: under setting [1], more than 7.30; under setting [2], more than 8.52.
In the same order, the values of `O=C([C@H](O)c1cccc(-c2cccc(C3CC3)c2)c1)N1CCCc2nc(C3(c4ccccc4)CC3)[nH]c(=O)c2C1` [49-47] are more than 7.30 and more than 8.00.
`Cc1ccc(-c2cccc([C@@H](O)C(=O)N3CCCc4nc(C5(c6ccccc6)CC5)[nH]c(=O)c4C3)c2)cc1C` [49-48]: the pIC50 was more than 7.30 under setting [1] and more than 8.00 under setting [2].
The corresponding values for `Cc1cc(C)cc(-c2cccc([C@@H](O)C(=O)N3CCCc4nc(C5(c6ccccc6)CC5)[nH]c(=O)c4C3)c2)c1` [49-49] are more than 7.30 and more than 8.00.
In the same order, the values of `CC(C)c1cccc(-c2cccc([C@@H](O)C(=O)N3CCCc4nc(C5(c6ccccc6)CC5)[nH]c(=O)c4C3)c2)c1` [49-50] are more than 7.30 and more than 8.52.
Turning to `Cc1cc(-c2cccc([C@@H](O)C(=O)N3CCCc4nc(C5(c6ccccc6)CC5)[nH]c(=O)c4C3)c2)ccc1Cl` [49-51], the pIC50 was more than 7.30 under setting [1] and more than 8.52 under setting [2].
In the same order, the values of `O=C([C@H](O)c1cccc(-c2cc(C(F)(F)F)ccc2Cl)c1)N1CCCc2nc(C3(c4ccccc4)CC3)[nH]c(=O)c2C1` [49-52] are more than 7.30 and more than 8.52.
The corresponding values for `O=C([C@H](O)c1cccc(-c2cccc(SC(F)(F)F)c2)c1)N1CCCc2nc(C3(c4ccccc4)CC3)[nH]c(=O)c2C1` [49-53] are more than 7.30 and more than 8.00.
With `O=C([C@H](O)c1cccc(-c2cccc(C(F)(F)F)c2)c1)N1CCCc2c(nc(C3(c4ccccc4)CC3)[nH]c2=O)C1` [49-54], the pIC50 is more than 7.30 under setting [1] and more than 8.00 under setting [2].
In the case of `CC(C)(C)c1cccc(-c2cccc([C@@H](O)C(=O)N3CCCc4c(nc(C5(c6ccccc6)CC5)[nH]c4=O)C3)c2)c1` [49-55], the pIC50 by setting is: under setting [1], more than 7.30; under setting [2], more than 8.00.
In the same order, the values of `O=C([C@H](O)c1cccc(-c2cccc(OC(F)(F)F)c2)c1)N1CCCc2c(nc(C3(c4ccccc4)CC3)[nH]c2=O)C1` [49-56] are more than 7.30 and more than 8.00.
`CC(C)c1cccc(-c2cccc([C@@H](O)C(=O)N3CCCc4c(nc(C5(c6ccccc6)CC5)[nH]c4=O)C3)c2)c1` [49-57] gave a pIC50 under setting [1] of more than 7.30.
In the case of `O=C([C@H](O)c1cccc(-c2csc3ccccc23)c1)N1CCCc2nc(C3(c4cccc(Cl)c4)CC3)[nH]c(=O)c2C1` [50-1], the pIC50 is, setting by setting: under setting [1], more than 7.30; under setting [2], more than 8.00.
In the same order, the values of `O=C([C@H](O)c1cccc(-c2cc3ccccc3s2)c1)N1CCCc2nc(C3(c4cccc(Cl)c4)CC3)[nH]c(=O)c2C1` [50-2] are more than 7.30 and more than 8.00.
The corresponding values for `O=C([C@H](O)c1cccc(-c2cccc(OC(F)(F)F)c2)c1)N1CCCc2nc(C3(c4cccc(Cl)c4)CC3)[nH]c(=O)c2C1` [50-3] are more than 7.30 and more than 8.00.
For the compound `O=C([C@H](O)c1cccc(-c2cccc(C(F)(F)F)c2)c1)N1CCCc2nc(C3(c4cccc(Cl)c4)CC3)[nH]c(=O)c2C1` [50-4], the pIC50 was more than 7.30 under setting [1] and more than 8.52 under setting [2].
`O=C([C@H](O)c1cccc(-c2ccc(Cl)cc2)c1)N1CCCc2nc(C3(c4cccc(Cl)c4)CC3)[nH]c(=O)c2C1` [50-5]: the pIC50 is more than 7.30 under setting [1] and more than 8.52 under setting [2].
The corresponding values for `O=C([C@H](O)c1cccc(-c2cccc(F)c2)c1)N1CCCc2nc(C3(c4cccc(Cl)c4)CC3)[nH]c(=O)c2C1` [50-6] are more than 7.30 and more than 8.52.
The corresponding values for `CC(C)(C)c1cccc(-c2cccc([C@@H](O)C(=O)N3CCCc4nc(C5(c6cccc(Cl)c6)CC5)[nH]c(=O)c4C3)c2)c1` [50-7] are more than 7.30 and more than 8.00.
In the same order, the values of `O=C([C@H](O)c1cccc(-c2coc3ccccc23)c1)N1CCCc2nc(C3(c4cccc(Cl)c4)CC3)[nH]c(=O)c2C1` [50-8] are more than 7.30 and more than 8.52.
For the compound `CC(C)c1cccc(-c2cccc([C@@H](O)C(=O)N3CCCc4nc(C5(c6cccc(Cl)c6)CC5)[nH]c(=O)c4C3)c2)c1` [50-9], the pIC50 runs as follows: under setting [1], more than 7.30; under setting [2], more than 8.52.
The corresponding values for `O=C([C@H](O)c1cccc(-c2cccc(C3CC3)c2)c1)N1CCCc2nc(C3(c4cccc(Cl)c4)CC3)[nH]c(=O)c2C1` [50-10] are more than 7.30 and more than 8.00.
Turning to `O=C([C@H](O)c1cccc(-c2ccnc(C(F)(F)F)c2)c1)N1CCCc2nc(C3(c4cccc(Cl)c4)CC3)[nH]c(=O)c2C1` [50-11], the pIC50 under setting [1] is more than 7.30 and the pIC50 under setting [2] was more than 8.52.
As to `O=C([C@H](O)c1cccc(-c2cccc(OCc3ccccc3)c2)c1)N1CCCc2nc(C3(c4cccc(Cl)c4)CC3)[nH]c(=O)c2C1` [50-12], the pIC50 was more than 7.30 under setting [1] and more than 8.00 under setting [2].
The corresponding values for `CC(C)Oc1cccc(-c2cccc([C@@H](O)C(=O)N3CCCc4nc(C5(c6cccc(Cl)c6)CC5)[nH]c(=O)c4C3)c2)c1` [50-13] are more than 7.30 and more than 8.00.
In the same order, the values of `O=C([C@H](O)c1cccc(-c2cccc(Cl)c2)c1)N1CCCc2nc(C3(c4cccc(Cl)c4)CC3)[nH]c(=O)c2C1` [50-14] are more than 7.30 and more than 8.00.
In the same order, the values of `O=C([C@H](O)c1cccc(-c2ccc3c(c2)OC(F)(F)O3)c1)N1CCCc2nc(C3(c4cccc(Cl)c4)CC3)[nH]c(=O)c2C1` [50-15] are more than 7.30 and more than 8.52.
`O=C([C@H](O)c1cccc(-c2cc(Cl)cc(OC(F)(F)F)c2)c1)N1CCCc2nc(C3(c4cccc(Cl)c4)CC3)[nH]c(=O)c2C1` [50-16]: the pIC50 is, setting by setting: under setting [1], more than 7.30; under setting [2], more than 8.00.
The corresponding values for `O=C([C@H](O)c1cccc(-c2cc(Cl)cc(C(F)(F)F)c2)c1)N1CCCc2nc(C3(c4cccc(Cl)c4)CC3)[nH]c(=O)c2C1` [50-17] are more than 7.30 and more than 8.00.
The corresponding values for `O=C([C@H](O)c1cccc(-c2cc(F)cc(Cl)c2)c1)N1CCCc2nc(C3(c4cccc(Cl)c4)CC3)[nH]c(=O)c2C1` [50-18] are more than 7.30 and more than 8.52.
With `Cc1cc(-c2cccc([C@@H](O)C(=O)N3CCCc4nc(C5(c6cccc(Cl)c6)CC5)[nH]c(=O)c4C3)c2)ccc1Cl` [50-19], the pIC50 runs as follows: under setting [1], more than 7.30; under setting [2], more than 8.52.
In the same order, the values of `N#Cc1ccc(-c2cccc([C@@H](O)C(=O)N3CCCc4nc(C5(c6cccc(Cl)c6)CC5)[nH]c(=O)c4C3)c2)cc1` [50-20] are more than 7.30 and more than 8.52.
In the same order, the values of `O=C([C@H](O)c1cccc(-c2ccc(F)c(Cl)c2)c1)N1CCCc2nc(C3(c4cccc(Cl)c4)CC3)[nH]c(=O)c2C1` [50-21] are more than 7.30 and more than 8.00.
Take `CC(C)(C)c1ccc(-c2cccc([C@@H](O)C(=O)N3CCCc4nc(C5(c6cccc(Cl)c6)CC5)[nH]c(=O)c4C3)c2)cc1` [50-22]: the pIC50 under setting [1] is more than 7.30 and the pIC50 under setting [2] is more than 8.00.
The corresponding values for `O=C([C@H](O)c1cccc(-c2ccc(Cl)c(C(F)(F)F)c2)c1)N1CCCc2nc(C3(c4cccc(Cl)c4)CC3)[nH]c(=O)c2C1` [50-23] are more than 7.30 and more than 8.00.
In the same order, the values of `O=C([C@H](O)c1cccc(-c2ccc(C(F)(F)F)cc2)c1)N1CCCc2nc(C3(c4cccc(Cl)c4)CC3)[nH]c(=O)c2C1` [50-24] are more than 7.30 and more than 8.00.
The corresponding values for `N#Cc1cccc(-c2cccc([C@@H](O)C(=O)N3CCCc4nc(C5(c6cccc(Cl)c6)CC5)[nH]c(=O)c4C3)c2)c1` [50-25] are more than 7.30 and more than 8.52.
In the case of `O=C([C@H](O)c1cccc(-c2ccc(OC(F)(F)F)cc2)c1)N1CCCc2nc(C3(c4cccc(Cl)c4)CC3)[nH]c(=O)c2C1` [50-26], the pIC50 is, setting by setting: under setting [1], more than 7.30; under setting [2], more than 8.00.
The corresponding values for `CC(C)c1cccc(C2(c3nc4c(c(=O)[nH]3)CN(C(=O)C(O)c3cccc(-c5ccnc(C(F)(F)F)c5)c3)CCC4)CC2)c1` (stereo not drawn) [51-1] are more than 7.30 and more than 8.00.

The term pIC50 denotes the IC50 on a negative log10 scale, so that one unit is a factor of ten.
